The source of these data is US20100184815A1 (priority 2008, published 2010).

Data set [1] deals with T1, Gal-4 hPPARα (Homo sapiens, UniProt Q07869).
T1 construct: Plasmids pGal4-hPPARα, pGal4-hPPARγ, pGal4-hPPARδ and pG5-TK-pGL3 were constructed as previously described by Staels, Bart, et al., Nature 1998 Jun; 25
T1 sequence (Q07869 200-468 limits assumed): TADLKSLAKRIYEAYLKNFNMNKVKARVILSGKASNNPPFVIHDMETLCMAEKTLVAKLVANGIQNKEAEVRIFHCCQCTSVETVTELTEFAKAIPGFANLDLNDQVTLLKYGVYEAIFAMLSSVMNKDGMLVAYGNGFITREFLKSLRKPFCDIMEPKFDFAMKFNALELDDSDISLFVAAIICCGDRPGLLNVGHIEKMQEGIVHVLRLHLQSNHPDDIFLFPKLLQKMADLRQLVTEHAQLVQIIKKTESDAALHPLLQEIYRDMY
In words: Gal4-hPPARα transient transfection reporter assay in Cos cells. The class given is cell-based. The conditions noted are these: luciferase reporter, 24 hours with compound, scale 1-5, read-out: Gal-4 hPPAR α EC50 (scaled number). The method, then:
(§1) Construction of recombinant plasmids. Plasmids pGal4-hPPARα, pGal4-hPPARγ, pGal4-hPPARδ and pG5-TK-pGL3 were constructed as previously described by Staels, Bart, et al., Nature 1998 Jun. 25; 393 (6687): 790-793, by Staels (Institut Pasteur de Lille, FR).
(§2) Transient transfection assays. Cos cells were seeded in 60-mm dishes at a density of 5.5×10^5 cells/dish in Dulbecco's modified Eagle's medium (DMEM) supplemented with 10% fetal calf serum (FCS) and incubated at 37° C. for 24 hours before transfection. Cells were transfected in Opti-MEM (Gibco; Invitrogen, Carlsbad, Calif.) without FCS for 3 hours at 37° C., using polyethylenimine, with reporter and expression plasmids. The plasmid pBluescript (Stratagene, La Jolla, Calif.) was used as carrier DNA to set the final amount of DNA to 5.5 μg/dish. The pCMV-b-galactosidase expression plasmid was cotransfected as a control for transfection efficiency. Transfection was stopped by the addition of DMEM supplemented with 10% FCS, and cells were then incubated at 37° C. After 16 hours, cells were trypsinized and seeded in 96-well plates at the density of 2×10^4 cells/well and incubated for 6 hours in 10% FCS-containing DMEM. Cells were then incubated for 24 hours in DMEM containing 0.2% FCS and increasing concentrations of the compound tested or vehicle (DMSO). At the end of the experiment, cells were washed once with ice-cold PBS, lysed and the luciferase and b-galactosidase assays were performed in a luminometer and spectrophotomer. Transfection efficiencies were normalized with the b-galactosidase activity assay. Half-maximal effective concentration (EC50) was estimated using Prism software (GraphPad). All transfection experiments were performed at least three times.
(§3) In the following tables, proprietary compound EC50 values for hPPAR α, β, δ and γ are shown. The EC50 value is the concentration of a drug that induces a response halfway between the baseline and maximum, and is commonly used as a measure of drug potency. EC50 values are reported on a scale of 1 through 5, wherein the value scale is defined for each receptor as follows: […]
In general terms: Reporter assays use an easily measured gene product as a stand-in for the process of interest.

Data set [2] addresses T2, Gal-4 hPPARγ (Homo sapiens, UniProt P37231).
T2 construct: Plasmids pGal4-hPPARα, pGal4-hPPARγ, pGal4-hPPARδ and pG5-TK-pGL3 were constructed as previously described by Staels, Bart, et al., Nature 1998 Jun; 25
T2 sequence (P37231 238-505 limits assumed): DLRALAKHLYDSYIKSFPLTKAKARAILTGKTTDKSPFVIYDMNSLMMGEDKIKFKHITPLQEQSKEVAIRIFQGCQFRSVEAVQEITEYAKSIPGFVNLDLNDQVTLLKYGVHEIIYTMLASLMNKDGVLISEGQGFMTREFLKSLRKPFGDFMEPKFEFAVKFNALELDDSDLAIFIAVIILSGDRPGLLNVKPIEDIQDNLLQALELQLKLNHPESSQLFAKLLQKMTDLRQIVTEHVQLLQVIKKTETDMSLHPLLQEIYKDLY
In words: Gal4-hPPARγ transient transfection reporter assay in Cos cells. It counts as cell-based. The following applies: luciferase reporter, 24 hours with compound, scale 1-5, read-out: Gal-4 hPPAR γ EC50 (scaled number). The method, then: as §1, §2, §3

Data set [3] is described as follows: Metabolism studies using human liver microsomal preparations. It counts as in vitro ADME. On the procedure:
Compounds were incubated in pooled human liver microsomes (HLMs) in the presence or absence of an NADPH-generating system. NADPH is required for the activity of cytochrome P450 (CYP) and other oxidative enzymes present in HLMs, but not for esterase activity. An additional incubation was carried out in the absence of HLM to assess compound stability. The disappearance of parent and the appearance of the corresponding acid metabolite were monitored over the time course of the incubations using LC-MS/MS.
A stock solution (20 mM) of each proprietary compound in DMSO was prepared and store at −20° C. until needed. A working stock solution (0.2 mM) was prepared for each proprietary compound by adding an aliquot of the stock solution (10 μL) to acetonitrile (990 μL).
An aliquot of the HLM solution was removed from the −80° C. freezer and placed on ice. Tris Buffer (50 mM, pH 7.4) containing MgCl2 (hexahydrate, 5 mM) was pre-incubated in a 37° C. water bath. A set of Eppendorf microfuge tubes (1.5 mL) was appropriately labeled. To each tube was added Tris buffer with or without the NADPH generating system. An aliquot of pooled HLMs was added to all the incubations except those that were the buffer control.
Tubes were preincubated for 5 min in a shaking incubator bath (37° C., 900 rpm) and the reaction was initiated by adding an aliquot of the proprietary working solution (5 μL). The additions were timed carefully in order to coordinate the sample collections below. A small aliquot (50 μL) was removed at […] and delivered to the respective tubes containing dextrorphan (100 μL of 0.5 μg/mL solution) in dissolved in methanol or acetonitrile. The samples were centrifuged at 14000 g for 15 minutes at 4° C. The supernatant was transferred to clean labeled HPLC injection vials and stored at −80° C. until analyzed. An aliquot of the supernatant […] was added to water (75 μL), mixed and injected onto the LC-MS/MS system for analysis.
“HLM t1/2” represents the observed half life of the compound under conditions that included NADPH, i.e., the CYP system was active. Comparison to the half life of the test article under (−)NADPH conditions, the enzyme predominant ly responsible for the metabolism of the test article. […] Where roughly equal metabolism is seen by each enzyme system, “mixed” is noted in the “Predominant enzyme” column.
In general terms: Microsomes from liver hold many membrane-bound enzymes, among them those of drug oxidation.

In data set [4] the target is T3, Gal-4 hPPARβ/δ (Homo sapiens, UniProt Q03181).
T3 construct: Plasmids pGal4-hPPARα, pGal4-hPPARγ, pGal4-hPPARδ and pG5-TK-pGL3 were constructed as previously described by Staels, Bart, et al., Nature 1998 Jun; 25
T3 sequence (Q03181 171-441 limits assumed): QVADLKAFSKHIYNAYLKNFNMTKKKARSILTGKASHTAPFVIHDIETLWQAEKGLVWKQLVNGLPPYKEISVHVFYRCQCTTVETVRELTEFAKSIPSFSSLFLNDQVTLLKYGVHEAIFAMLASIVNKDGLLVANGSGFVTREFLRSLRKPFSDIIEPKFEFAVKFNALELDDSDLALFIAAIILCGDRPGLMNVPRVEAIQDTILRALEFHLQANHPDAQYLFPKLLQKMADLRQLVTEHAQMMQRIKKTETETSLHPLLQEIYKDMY
The experiment in a line: Gal4-hPPARδ transient transfection reporter assay in Cos cells. The conditions noted are these: luciferase reporter, 24 hours with compound, scale 1-5, read-out: Gal-4 hPPAR β/δ EC50 (scaled number). It counts as cell-based. On the procedure:
as §1, §2, §3

Each structure is given as a SMILES string.

On to `C[C@@H](Cc1cn(Cc2ccc(C(C)(C)C)cc2)nn1)OC(=O)c1ccc(SC(C)(C)C(=O)O)cc1` [Compound 133, 4-(1-Carboxy-1-methyl-ethylsulfanyl)-benzoic acid (S)-2-[1-(4-tert-butyl-benzyl)-1H-1,2,3-triazol-4-yl]-1-methyl-ethyl ester], for which the EC50 was 1 to 50 nM in data set [1], over 1000 nM in data set [2] and over 1000 nM in data set [4]. The “HLMs Predominant Enzyme” value in data set [3] (comparison of half life with and without NADPH: Esterase, CYP or Mixed) was “Mixed”. Besides, in data set [3] (pH 7.4, pooled human liver microsomes, with NADPH (CYP system active), 37° C., read-out: HLMs t1/2), the half-life was 29 min.
For `CCCCCCn1c(COC(=O)c2ccc(SC(C)(C)C(=O)O)cc2)nn(Cc2ccc(C(OC)(C(F)(F)F)C(F)(F)F)cc2)c1=O` [Compound 201, 2-(4-(((1-(4-(1,1,1,3,3,3-hexafluoro-2-methoxypropan-2-yl)benzyl)-4-hexyl-5-oxo-4,5-dihydro-1H-1,2,4-triazol-3-yl)methoxy)carbonyl)phenylthio)-2-methylpropanoic acid], the values for the EC50 in data set [1], in data set [2] and in data set [4] were 1 to 50 nM, over 1000 nM and over 1000 nM, respectively.
Regarding `CCCCCCn1c(COC(=O)c2ccc(OC(C)(C)C(=O)O)cc2)nn(Cc2ccc(C(OC)(C(F)(F)F)C(F)(F)F)cc2)c1=O` [Compound 202, 2-(4-(((1-(4-(1,1,1,3,3,3-hexafluoro-2-methoxypropan-2-yl)benzyl)-4-hexyl-5-oxo-4,5-dihydro-1H-1,2,4-triazol-3-yl)methoxy)carbonyl)phenoxy)-2-methylpropanoic acid], the EC50 in data set [1] is 1 to 50 nM; in data set [2], over 1000 nM; in data set [4], over 1000 nM.
Turning to `CCCCCCn1c(COC(=O)c2ccc(SC(C)(C)C(=O)O)cc2)nn(Cc2ccc(C(F)(C(F)(F)F)C(F)(F)F)cc2)c1=O` [Compound 203, 2-(4-(((4-hexyl-5-oxo-1-(4-(perfluoropropan-2-yl)benzyl)-4,5-dihydro-1H-1,2,4-triazol-3-yl)methoxy)carbonyl)phenylthio)-2-methylpropanoic acid], the EC50 is 1 to 50 nM in data set [1], over 1000 nM in data set [2] and over 1000 nM in data set [4].
Take `CCCCCCn1c(COC(=O)c2ccc(OC(C)(C)C(=O)O)cc2)nn(Cc2ccc(C(F)(C(F)(F)F)C(F)(F)F)cc2)c1=O` [Compound 204, 2-(4-(((4-hexyl-5-oxo-1-(4-(perfluoropropan-2-yl)benzyl)-4,5-dihydro-1H-1,2,4-triazol-3-yl)methoxy)carbonyl)phenoxy)-2-methylpropanoic acid]: the results for the EC50 in data set [1], in data set [2] and in data set [4] were 51 to 200 nM, over 1000 nM and over 1000 nM, respectively.
Take `CCCn1c(COC(=O)c2ccc(OC(C)(C)C(=O)O)cc2)nn(Cc2cc(C(F)(F)F)cc(C(F)(F)F)c2)c1=O` [Compound 206, 2-(4-(((1-(3,5-bis(trifluoromethyl)benzyl)-5-oxo-4-propyl-4,5-dihydro-1H-1,2,4-triazol-3-yl)methoxy)carbonyl)phenoxy)-2-methylpropanoic acid]: the EC50 in data set [1] is 201 to 999 nM; in data set [2], over 1000 nM; in data set [4], over 1000 nM.
Consider `CCCn1c(COC(=O)c2ccc(OC(C)(C)C(=O)O)cc2)nn(Cc2ccc(SC(F)(F)F)cc2)c1=O` [Compound 210, 2-methyl-2-(4-(((5-oxo-4-propyl-1-(4-(trifluoromethylthio)benzyl)-4,5-dihydro-1H-1,2,4-triazol-3-yl)methoxy)carbonyl)phenoxy)propanoic acid], for which the EC50 is 201 to 999 nM in data set [1], over 1000 nM in data set [2] and over 1000 nM in data set [4].
On to `CCCn1c(COC(=O)c2ccc(SC(C)(C)C(=O)O)cc2)nn(Cc2cc(F)cc(F)c2)c1=O` [Compound 218, 2-(4-(((1-(3,5-difluorobenzyl)-5-oxo-4-propyl-4,5-dihydro-1H-1,2,4-triazol-3-yl)methoxy)carbonyl)phenylthio)-2-methylpropanoic acid], for which the EC50 in data set [1] is 51 to 200 nM; in data set [2], over 1000 nM; in data set [4], over 1000 nM.
As to `Cc1ccc(Cn2nc(COC(=O)c3ccc(SC(C)(C)C(=O)O)cc3)[nH]c2=O)cc1` [Compound 261, 4-(1-Carboxy-1-methyl-ethylsulfanyl)-benzoic acid 1-(4-methyl-benzyl)-5-oxo-4,5-dihydro-1H-1,2,4-triazol-3-ylmethyl ester], the EC50 was 51 to 200 nM in data set [1], over 1000 nM in data set [2] and over 1000 nM in data set [4].
In the case of `CCCCCCCn1c(C(C)OC(=O)c2ccc(SC(C)(C)C(=O)O)cc2)nn(Cc2ccc(C)cc2)c1=O` (centres unmarked) [Compound 264, 4-(1-Carboxy-1-methyl-ethylsulfanyl)-benzoic acid 1-[4-heptyl-1-(4-methyl-benzyl)-5-oxo-4,5-dihydro-1H-1,2,4-triazol-3-yl]-ethyl ester], the values for the EC50 in data set [1], in data set [2] and in data set [4] were under 1 nM, 51 to 200 nM and over 1000 nM, respectively.
For `CCCn1c(COC(=O)c2ccc(OC(C)(C)C(=O)O)c(C)c2)nn(Cc2ccc(C(C)(C)C)cc2)c1=O` [Compound 266, 4-(1-Carboxy-1-methyl-ethoxy)-3-methyl-benzoic acid 1-(4-tert-butyl-benzyl)-5-oxo-4-propyl-4,5-dihydro-1H-1,2,4-triazol-3-ylmethyl ester], in that order: 201 to 999 nM, over 1000 nM and over 1000 nM.
